Test results as given in ChEMBL document CHEMBL1201862, “PubChem BioAssay data set” (2004).
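Where inhibition never reached the appropriate level, the endpoint shown equals the highest concentration tested. Otherwise, values were interpolated linearly from a five-concentration, 48-hour dose response in 96-well plates. Abbreviation: GI50, concentration required for 50% inhibition of growth.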 The source made the active and inactive calls. Cut-off read from the data, not from the text of the source: active = GI50 up to about 1.1 µM and inactive = higher.

Assays:
Experiment in all cases: DTP human tumour cell line panel, 48 h
MDA-MB-435 = system: MDA-MB-435
MDA-MB-231 = system: MDA-MB-231
A498 = system: A498
NCI-H226 = system: NCI-H226
UACC-62 = system: UACC-62
U-251 = system: U-251
EKVX = system: EKVX
UO-31 = system: UO-31
TK-10 = system: TK-10
RXF 393 = system: RXF 393
T47D = system: T47D
SK-MEL-5 = system: SK-MEL-5
HCT-15 = system: HCT-15
Malme-3M = system: Malme-3M
HCT-116 = system: HCT-116
NCI-H23 = system: NCI-H23
OVCAR-5 = system: OVCAR-5
COLO 205 = system: COLO 205
SNB-19 = system: SNB-19
SNB-75 = system: SNB-75
CAKI-1 = system: CAKI-1
SF-295 = system: SF-295
SF-268 = system: SF-268
MDA-N = system: MDA-N
HOP-62 = system: HOP-62
KM12 = system: KM12
Hs-578T = system: Hs-578T
HT-29 = system: HT-29
SW-620 = system: SW-620
PC-3 = system: PC-3
SF-539 = system: SF-539
CCRF-CEM = system: CCRF-CEM
NCI-H522 = system: NCI-H522
SK-MEL-2 = system: SK-MEL-2
OVCAR-4 = system: OVCAR-4
HCC 2998 = system: HCC 2998
NCI-H460 = system: NCI-H460
MOLT-4 = system: MOLT-4
NCI/ADR-RES = system: NCI/ADR-RES
A549 = system: A549
IGROV-1 = system: IGROV-1
HOP-92 = system: HOP-92
HL-60 = system: HL-60
UACC-257 = system: UACC-257
LOX IMVI = system: LOX IMVI
SK-MEL-28 = system: SK-MEL-28
SN12C = system: SN12C
M14 = system: M14
OVCAR-3 = system: OVCAR-3
786-0 = system: 786-0
OVCAR-8 = system: OVCAR-8
ACHN = system: ACHN
SR = system: SR
MCF7 = system: MCF7
BT-549 = system: BT-549
DU-145 = system: DU-145
K562 = system: K562
SK-OV-3 = system: SK-OV-3
RPMI-8226 = system: RPMI-8226

Compound: CC[C@@]1(O)C(=O)OCc2c1cc1n(c2=O)Cc2c-1nc1ccccc1c2/C=N\NC(=O)C(C)N (some centres undefined)
- GI50 (MDA-MB-435): 1.61 µM (inactive)
- GI50 (MDA-MB-231): 27 µM (inactive)
- GI50 (A498): 0.111 µM (active)
- GI50 (NCI-H226): 0.33 µM (active)
- GI50 (UACC-62): < 0.01 µM (active)
- GI50 (U-251): < 0.0195 µM (active)
- GI50 (EKVX): 11.9 µM (inactive)
- GI50 (UO-31): 0.182 µM (active)
- GI50 (TK-10): > 29.3 µM (inactive)
- GI50 (RXF 393): 1.04 µM (active)
- GI50 (T47D): < 0.0157 µM (active)
- GI50 (SK-MEL-5): 0.238 µM (active)
- GI50 (HCT-15): 4.29 µM
- GI50 (Malme-3M): 1.64 µM (inactive)
- GI50 (HCT-116): 0.186 µM (active)
- GI50 (NCI-H23): < 0.0214 µM (active)
- GI50 (OVCAR-5): 6.71 µM (inactive)
- GI50 (COLO 205): 7.11 µM (inactive)
- GI50 (SNB-19): 0.0233 µM (active)
- GI50 (SNB-75): < 0.0298 µM (active)
- GI50 (CAKI-1): 0.071 µM (active)
- GI50 (SF-295): < 0.0371 µM (active)
- GI50 (SF-268): < 0.017 µM (active)
- GI50 (MDA-N): 1.34 µM (inactive)
- GI50 (HOP-62): < 0.0266 µM (active)
- GI50 (KM12): 5.36 µM (inactive)
- GI50 (Hs-578T): 11.9 µM (inactive)
- GI50 (HT-29): 1.63 µM (inactive)
- GI50 (SW-620): 1.37 µM (inactive)
- GI50 (PC-3): 1.91 µM (inactive)
- GI50 (SF-539): < 0.0116 µM (active)
- GI50 (CCRF-CEM): < 0.01 µM (active)
- GI50 (NCI-H522): 0.432 µM (active)
- GI50 (SK-MEL-2): 13.1 µM (inactive)
- GI50 (OVCAR-4): 7.1 µM (inactive)
- GI50 (HCC 2998): 0.332 µM (active)
- GI50 (NCI-H460): < 0.0243 µM (active)
- GI50 (MOLT-4): < 0.0158 µM (active)
- GI50 (NCI/ADR-RES): 0.241 µM (active)
- GI50 (A549): 0.405 µM (active)
- GI50 (IGROV-1): 1.13 µM (inactive)
- GI50 (HOP-92): 0.179 µM (active)
- GI50 (HL-60): < 0.028 µM (active)
- GI50 (UACC-257): 1.37 µM (inactive)
- GI50 (LOX IMVI): 0.0254 µM (active)
- GI50 (SK-MEL-28): 17.8 µM (inactive)
- GI50 (SN12C): < 0.01 µM (active)
- GI50 (M14): 0.254 µM (active)
- GI50 (OVCAR-3): 7.06 µM (inactive)
- GI50 (786-0): 0.069 µM (active)
- GI50 (OVCAR-8): 0.0923 µM (active)
- GI50 (ACHN): < 0.0216 µM (active)
- GI50 (SR): < 0.01 µM (active)
- GI50 (MCF7): < 0.022 µM (active)
- GI50 (BT-549): 0.303 µM (active)
- GI50 (DU-145): 0.0401 µM (active)

Compound: O=C(SCc1cccc2ccccc12)c1ccc(Cl)cc1
- GI50 (MDA-MB-435): 97.1 µM (inactive)
- GI50 (MDA-MB-231): > 100 µM (inactive)
- GI50 (A498): > 100 µM (inactive)
- GI50 (NCI-H226): > 100 µM (inactive)
- GI50 (UACC-62): > 100 µM (inactive)
- GI50 (U-251): > 100 µM (inactive)
- GI50 (EKVX): 80 µM (inactive)
- GI50 (UO-31): > 100 µM (inactive)
- GI50 (TK-10): > 100 µM (inactive)
- GI50 (K562): 48.4 µM (inactive)
- GI50 (RXF 393): > 100 µM (inactive)
- GI50 (T47D): 81.7 µM (inactive)
- GI50 (SK-MEL-5): 45.2 µM (inactive)
- GI50 (HCT-15): 50.9 µM
- GI50 (Malme-3M): 96.6 µM (inactive)
- GI50 (HCT-116): 66.1 µM (inactive)
- GI50 (NCI-H23): 95.3 µM (inactive)
- GI50 (OVCAR-5): > 100 µM (inactive)
- GI50 (COLO 205): 82.2 µM (inactive)
- GI50 (SNB-19): > 100 µM (inactive)
- GI50 (SNB-75): > 100 µM (inactive)
- GI50 (CAKI-1): > 100 µM (inactive)
- GI50 (SF-295): > 100 µM (inactive)
- GI50 (SF-268): 80.4 µM (inactive)
- GI50 (MDA-N): > 100 µM (inactive)
- GI50 (HOP-62): > 100 µM (inactive)
- GI50 (KM12): > 100 µM (inactive)
- GI50 (SK-OV-3): > 100 µM (inactive)
- GI50 (Hs-578T): 79.3 µM (inactive)
- GI50 (RPMI-8226): 46.9 µM (inactive)
- GI50 (HT-29): 54.2 µM (inactive)
- GI50 (SW-620): > 100 µM (inactive)
- GI50 (PC-3): > 100 µM (inactive)
- GI50 (SF-539): > 100 µM (inactive)
- GI50 (CCRF-CEM): > 100 µM (inactive)
- GI50 (NCI-H522): 45.8 µM (inactive)
- GI50 (SK-MEL-2): > 100 µM (inactive)
- GI50 (OVCAR-4): > 100 µM (inactive)
- GI50 (HCC 2998): > 100 µM (inactive)
- GI50 (NCI-H460): 49 µM (inactive)
- GI50 (NCI/ADR-RES): > 100 µM (inactive)
- GI50 (A549): > 100 µM (inactive)
- GI50 (IGROV-1): > 100 µM (inactive)
- GI50 (HOP-92): 18.8 µM (inactive)
- GI50 (HL-60): 48.5 µM (inactive)
- GI50 (UACC-257): 76.7 µM (inactive)
- GI50 (LOX IMVI): > 100 µM (inactive)
- GI50 (SK-MEL-28): > 100 µM (inactive)
- GI50 (SN12C): > 100 µM (inactive)
- GI50 (M14): > 100 µM (inactive)
- GI50 (OVCAR-3): 44.4 µM (inactive)
- GI50 (786-0): > 100 µM (inactive)
- GI50 (OVCAR-8): > 100 µM (inactive)
- GI50 (ACHN): > 100 µM (inactive)
- GI50 (SR): 39.3 µM (inactive)
- GI50 (MCF7): > 100 µM (inactive)
- GI50 (BT-549): > 100 µM (inactive)
- GI50 (DU-145): > 100 µM (inactive)
